Experiments:
[1] = test system: CK2-mediated phosphorylation of AKT at S129; assay: Western blot of AKT(S129) phosphorylation (CK2-specific site) in 293T cells; format: cell-based, human; conditions: 12 hours
[2] = test system: SR protein phosphorylation; assay: Western blot of phosphorylated SR proteins (mAb 1H4) in 293T cells; format: cell-based, human; conditions: for alteration of SR protein phosphorylation: 100 µM, 12 hour, Figure S5
293T cells [3] = assay: RT-PCR analysis of alternative pre-mRNA splicing in 293T cells; format: cell-based, human
Method: Cells (293T, Huh7, and HepG2) were cultured in Dulbecco's modified Eagle's medium (DMEM) containing 10% fetal bovine serum (FBS; Hyclone) supplemented with 1% penicillin and streptomycin. […] The 293T cells were transfected in 6-well plates with siRNAs (Bioneer) at a final concentration of 100 nM using Lipofectamine RNAiMax (Invitrogen) according to the manufacturer's instructions.
(§1) To analyze the effect of compounds on pre-mRNA splicing, 293T, Huh7, and HepG2 cells were treated with the indicated concentrations. Total RNAs were extracted using the TRIzol reagent (Invitrogen) followed by cDNA synthesis using the Omniscript RT kit (Qiagen) and an oligo-dT primer. PCR was performed at 95°C for 30 s, 55°C for 30 s, and 72°C for 1 min for 35 cycles using GoTaq Green Master Mix (Promega). Quantitative real-time PCR analysis was performed using the BioRad IQ SYBR Green Supermix. All gene expression experiments were performed independently at least twice.
(§2) The cDNA was synthesized and further processed for exon array as described in Materials and Methods. All experiments were performed three times, and representative heat maps of selected transcripts from the exon arrays are shown. Selected exons for each mRNA are highlighted with black underlines. (B) RT-PCR analysis was performed for the ELL2, SPAST, QRSL1, PRPSAP2, CPEB1, USP38, TRIP4, CTDSPL2, WDFY1 and ZCCHC2 genes with the same RNA used for the exon arrays. The exonic structure of the RT-PCR products and the exonic location of PCR primers are indicated with tandem rectangles and arrowheads, respectively. PCR products were quantified using ImageJ software, and the ratios of skipped product (skipped/total PCR product) were calculated.
Total levels of AKT were also monitored as a control. hnRNP A1 was used as a loading control. (B) Alternatively spliced CK2 α′, ELL2, CPEB1, PRPSAP2, and QRSL1 mRNAs were examined by RT-PCR. PCR products of normal and alternatively spliced isoforms are denoted by black arrowheads. An extra PCR product of the QRSL1 gene appeared in TBB-treated samples and is denoted by an asterisk. All experiments were performed twice, and representative data for each are presented.

[4] = test system: Clk1 and Clk4 over Clk2 and Clk3; parameters: method as in PMID 15010457; conditions: cited from earlier work
293T cells [5] = assay: Quantitative real-time PCR of CK2 α′ mRNA levels in 293T cells; format: cell-based, human; conditions: qPCR, primers to exon 7, Figure S1
Method: as §1
Figure S1. […] Quantitative real-time PCR was performed with total RNA from DMSO- and CX-4945-treated 293T cells. The amount of normal CK2 α’ mRNA was measured using primers corresponding to exon 6, and the total amount of normal CK2 α’ mRNA and the smaller-sized CK2 α’ mRNA was measured using primers corresponding to exon 7. The values for DMSO-treated samples were set to 1, and the relative amounts were calculated. The average and SD values were determined from three independent experiments.

Huh7 cells = assay: RT-PCR of Bcl-X and RON alternative splicing in Huh7 cells; format: cell-based, human; conditions: 12 hours
Method: as §1

293T cells [6] = assay: Affymetrix exon array, transcriptome-wide splicing in 293T cells; format: cell-based, human; conditions: 10 µM, 12 hours
Method: The fragmented and end-labeled single-stranded cDNAs were prepared and hybridized to Affymetrix-GeneChip Human Exon 1.0 ST arrays (Affymetrix). Affymetrix Expression Console Software was used to perform quality assessment. Affymetrix exon array data was analyzed using GeneSpring 12.6 inclusive of GX (Agilent Technologies). Three independent experimental samples were examined.
Transcriptome analysis with the Affymetrix GeneChip Human Exon 1.0 ST Array, which contains multiple probes per exon, allowed us to search for variations at the exon level. […] Further analysis characterized the 8,968 affected exons into 1,555 included exons and 7,413 skipped exons. To validate this observation, we randomly chose 15 exons from those affected by more than 2-fold and examined alterations in alternative splicing using RT-PCR of the same total RNAs used in the exon array experiments. Representative mRNAs containing selected exons are illustrated by heat maps, and all of the selected exons were denoted by black underlines (Figure 2A). […] Different exons are commonly affected differentially by a stimulus or splicing inhibition, depending on cis-acting elements on exon/intron and activities of trans-acting factors.
as §2

recombinant human Clk3 = recombinant human Clk3 (Homo sapiens, UniProt P49761); assay: In vitro kinase assay (Life Technologies), Clk3; format: biochemical
recombinant human SRPK2 = recombinant human SRPK2 (Homo sapiens, UniProt P78362); assay: In vitro kinase assay (Life Technologies), SRPK2; format: biochemical; conditions: two independent assays
recombinant human SRPK1 = recombinant human SRPK1 (Homo sapiens, UniProt Q96SB4); assay: In vitro kinase assay (Life Technologies), SRPK1; format: biochemical; conditions: two independent assays
Clks = assay: In vitro kinase assays (Millipore), CX-4945 compared with TG-003 on Clks; format: biochemical, human; conditions: Figure S6
Method: All experiments were performed twice.

SRPKs (SRPK1 and SRPK2) = assay: In vitro kinase assays, SRPK family as a whole; format: biochemical, human
HepG2 cells = assay: Quantitative real-time PCR of gluconeogenic genes in HepG2 cells; conditions: 12 hours
[7] = biological target: Clks (Clk1, Clk2, and Clk3); assay: In vitro kinase assays, Clk family as a whole; format: biochemical, human; conditions: range over Clk1, Clk2, Clk3; read-out: IC50 on Clks (all three Clks, Clk1-3)

Chain of recombinant human SRPK1 (Q96SB4 whole entry): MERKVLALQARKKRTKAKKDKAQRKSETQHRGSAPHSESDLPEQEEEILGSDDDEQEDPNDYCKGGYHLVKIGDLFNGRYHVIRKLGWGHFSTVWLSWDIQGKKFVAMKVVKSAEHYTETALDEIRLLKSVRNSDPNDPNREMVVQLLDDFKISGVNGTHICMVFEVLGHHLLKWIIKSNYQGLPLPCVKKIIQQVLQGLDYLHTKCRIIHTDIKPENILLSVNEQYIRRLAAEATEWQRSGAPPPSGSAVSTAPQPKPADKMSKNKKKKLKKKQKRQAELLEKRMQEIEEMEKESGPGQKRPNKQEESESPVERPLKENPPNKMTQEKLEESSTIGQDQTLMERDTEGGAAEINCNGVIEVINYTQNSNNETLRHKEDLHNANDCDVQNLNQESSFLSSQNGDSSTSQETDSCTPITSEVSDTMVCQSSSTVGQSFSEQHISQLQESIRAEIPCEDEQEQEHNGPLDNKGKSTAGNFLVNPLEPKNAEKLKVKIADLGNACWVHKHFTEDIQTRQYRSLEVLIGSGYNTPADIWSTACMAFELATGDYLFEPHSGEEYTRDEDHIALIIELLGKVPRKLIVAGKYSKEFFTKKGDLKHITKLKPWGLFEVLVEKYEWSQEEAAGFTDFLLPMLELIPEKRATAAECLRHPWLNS
Chain of recombinant human Clk3 (P49761 whole entry): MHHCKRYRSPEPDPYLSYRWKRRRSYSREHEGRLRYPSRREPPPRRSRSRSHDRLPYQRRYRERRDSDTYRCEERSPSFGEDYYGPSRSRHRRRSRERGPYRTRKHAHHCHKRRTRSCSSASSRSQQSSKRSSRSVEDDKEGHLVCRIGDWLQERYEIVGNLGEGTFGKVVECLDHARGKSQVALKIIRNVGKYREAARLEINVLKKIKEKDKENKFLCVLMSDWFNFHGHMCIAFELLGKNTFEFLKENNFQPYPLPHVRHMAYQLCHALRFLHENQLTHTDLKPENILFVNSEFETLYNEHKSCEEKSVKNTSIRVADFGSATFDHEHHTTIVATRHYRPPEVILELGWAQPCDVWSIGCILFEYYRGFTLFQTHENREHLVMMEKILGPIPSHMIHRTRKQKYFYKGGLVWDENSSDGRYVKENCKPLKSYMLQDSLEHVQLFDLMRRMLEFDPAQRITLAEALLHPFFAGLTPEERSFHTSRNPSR
Chain of recombinant human SRPK2 (P78362 whole entry): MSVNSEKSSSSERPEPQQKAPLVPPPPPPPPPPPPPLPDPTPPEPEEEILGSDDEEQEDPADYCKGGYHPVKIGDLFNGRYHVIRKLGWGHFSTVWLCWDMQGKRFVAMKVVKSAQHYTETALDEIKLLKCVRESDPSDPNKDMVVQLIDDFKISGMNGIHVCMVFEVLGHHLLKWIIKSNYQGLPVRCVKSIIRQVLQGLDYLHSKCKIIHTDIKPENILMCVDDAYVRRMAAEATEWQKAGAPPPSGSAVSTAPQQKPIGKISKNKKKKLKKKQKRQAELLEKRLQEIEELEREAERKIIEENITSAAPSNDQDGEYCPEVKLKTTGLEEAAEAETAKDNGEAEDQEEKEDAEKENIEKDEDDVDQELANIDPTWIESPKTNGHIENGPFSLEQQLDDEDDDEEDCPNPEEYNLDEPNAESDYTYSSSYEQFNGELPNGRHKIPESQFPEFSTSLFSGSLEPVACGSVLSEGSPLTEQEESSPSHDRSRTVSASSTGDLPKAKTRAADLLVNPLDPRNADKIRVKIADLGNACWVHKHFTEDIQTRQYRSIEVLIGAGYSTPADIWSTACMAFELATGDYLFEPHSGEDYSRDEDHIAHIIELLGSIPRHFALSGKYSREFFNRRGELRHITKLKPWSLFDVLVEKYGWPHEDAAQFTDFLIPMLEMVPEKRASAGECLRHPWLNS

O=C(O)/C=C/c1cc(Br)c(Br)c(Br)c1Br [TBCA, tetrabromocinnamic acid]
CK2-mediated phosphorylation of AKT at S129 ([1]; 100 µM): efficiently blocked | alteration of SR protein phosphorylation [2]: did not induce the alteration | changes in alternative splicing of selected genes (CK2 α′, ELL2, CPEB1, PRPSAP2, QRSL1) (293T cells [3]; 100 µM, 12 hours): negligible effect

CCN1/C(=C/C(C)=O)Sc2ccc(OC)cc21 [TG-003]
preferential efficacy on Clk1 and Clk4 over Clk2 and Clk3 [4]: at least 5 fold

O=C(O)c1ccc2c(c1)nc(Nc1cccc(Cl)c1)c1ccncc12 [CX-4945]
total amount of normal CK2 α′ and smaller-sized CK2 α′ mRNA (293T cells [5]): not altered | CK2-mediated phosphorylation of AKT at S129 ([1]; 10 µM): efficiently blocked | normal alternative splicing of Bcl-X and RON pre-mRNAs (Huh7 cells): alteration of normal alternative splicing | included exons among the affected exons (293T cells [6]): 1,555 exons | skipped exons among the affected exons (293T cells [6]): 7,413 exons | genes affected at the whole-transcript level (293T cells [6]; 82 out of 18,673 genes): 0.44% | regulatory efficacy on SR protein phosphorylation compared with TG-003 ([2]; 1 µM CX-4945 versus 10 µM TG-003, 1 hour): stronger than that of TG-003 | levels of phosphorylated SRSF4, SRSF6, SRSF5, and SRSF1 ([2]; 1 and 10 µM, 1 hour): considerably decreased | phosphorylation of SRSF3 ([2]; 1 and 10 µM, 1 hour): not affected | upper band of phospho-SRSF6 (hyperphosphorylated SRSF6) ([2]; 1 and 10 µM, 1 hour): dramatically increased | dose dependence of effect on phosphorylation of SR proteins ([2]; 1 versus 10 µM, 1 hour): dose-dependent | IC50 (recombinant human Clk3): 90 nM | amount of PCR product corresponding to normal CK2 α′ (293T cells [3]; 10 µM, 12 hours, compared with DMSO): reduced | splicing of Clk1/Sty pre-mRNA (293T cells [3]; 12 hours, 293T): changes in splicing | time of appearance of new product CK2 α′△ (exon6-skipped) (293T cells [3]; time course following exposure, 293T): as early as 2 or 3 | IC50 (recombinant human SRPK2): 1110 nM | IC50 (recombinant human SRPK1): 1230 nM | overall efficacies on Clks compared with TG-003 (Clks): much stronger than those of TG-003 | IC50 (SRPKs (SRPK1 and SRPK2)): > 1000 nM | G6Pase and PEPCK gene expression (HepG2 cells): induced | IC50 [7]: 3 to 90 nM

Brc1c(Br)c(Br)c2[nH]nnc2c1Br [TBB, 4,5,6,7-tetrabromobenzotriazole]
CK2-mediated phosphorylation of AKT at S129 ([1]; 100 µM): efficiently blocked | alteration of SR protein phosphorylation [2]: did not induce the alteration | changes in alternative splicing of selected genes (CK2 α′, ELL2, CPEB1, PRPSAP2, QRSL1) (293T cells [3]; 100 µM, 12 hours): negligible effect | extra PCR product of QRSL1 (cryptic splicing, 3′ part of exon 11) (293T cells [3]; 100 µM, 12 hours): induced the appearance of an additional PCR product
